Measured values reported in ChEMBL document CHEMBL3885861, “Open TG-GATES”.

Species: Rattus norvegicus
Assay: Open TG-GATES - Regimen: Daily Repeat
Type: toxicity, organism-based, Sprague-Dawley
Set-up: regimen Daily Repeat, gender Male, age 6 weeks
Details: in vivo, po, route gavage; for APTT / Bas / Eos / Fbg / Hb / Ht / Lym / MCH / MCHC / MCV / Mono / Neu / PT / Plat / RBC / Ret / WBC: tissue Blood; for KIDNEY_L / KIDNEY_R / KIDNEY_TOTAL: tissue Kidney; for LIVER: tissue Liver; for A/G / ALP / ALT / AST / BUN / CRE / Ca / Cl / DBIL / GLC / IP / K / LDH / Na / PL / RALB / TBIL / TC / TG / TP / gamma-GTP: tissue Plasma
[1] = 0 mg/kg, 72 h, dose level Control, time 3 day
[2] = 0 mg/kg, […], dose level Control, time 7 day
[3] = 0 mg/kg, […], dose level Control, time 14 day
[4] = 0 mg/kg, […], dose level Control, time 28 day
[5] = 100 mg/kg, 72 h, dose level Low, time 3 day
[6] = 100 mg/kg, […], dose level Low, time 7 day
[7] = 100 mg/kg, […], dose level Low, time 14 day
[8] = 100 mg/kg, […], dose level Low, time 28 day

## CC(C)(S)[C@@H](N)C(=O)O [PENICILLAMINE]
[1]
  TERMINAL_BW: 235.9 g
  APTT: 15.9 s
  Bas: 0.2%
  Eos: 0.6%
  Fbg: 305 mg/dL
  Hb: 13.7 g/dL
  Ht: 41.9%
  Lym: 75.8%
  MCH: 21.1 pg
  MCHC: 32.7%
  MCV: 64.6 fL
  Mono: 3%
  Neu: 19.6%
  PT: 13.8 s
  Plat: 131.2 x10_4/uL
  RBC: 648.8 x10_4/ul
  Ret: 7.1%
  WBC: 113.2 x10_2/uL
  KIDNEY_L: 0.9 g
  KIDNEY_R: 0.9 g
  KIDNEY_TOTAL: 1.9 g
  LIVER: 11.2 g
  A/G: 0.9
  ALP: 1527 IU/L
  ALT: 43.4 IU/L
  AST: 69 IU/L
  BUN: 14.6 mg/dL
  CRE: 0.2 mg/dL
  Ca: 11.1 mg/dL
  Cl: 106.2 meq/L
  DBIL: 0.014 mg/dL
  GLC: 177.8 mg/dL
  IP: 6.8 mg/dL
  K: 4.1 meq/L
  LDH: 84.4 IU/L
  Na: 144.2 meq/L
  PL: 171.8 mg/dL
  RALB: 2.8 g/dL
  TBIL: 0.018 mg/dL
  TC: 90.2 mg/dL
  TG: 118.8 mg/dL
  TP: 5.8 g/dL
  gamma-GTP: 1 IU/L
[2]
  TERMINAL_BW: 275.3 g
  APTT: 17.9 s
  Bas: 0%
  Eos: 1%
  Fbg: 320.4 mg/dL
  Hb: 14.2 g/dL
  Ht: 43.2%
  Lym: 72.8%
  MCH: 21 pg
  MCHC: 32.8%
  MCV: 64.1 fL
  Mono: 2.8%
  Neu: 22.4%
  PT: 13.9 s
  Plat: 121.1 x10_4/uL
  RBC: 674.8 x10_4/ul
  Ret: 5.9%
  WBC: 98.3 x10_2/uL
  KIDNEY_L: 1.1 g
  KIDNEY_R: 1.1 g
  KIDNEY_TOTAL: 2.2 g
  LIVER: 13 g
  A/G: 0.9
  ALP: 1428 IU/L
  ALT: 45.4 IU/L
  AST: 68.6 IU/L
  BUN: 15 mg/dL
  CRE: 0.2 mg/dL
  Ca: 10.9 mg/dL
  Cl: 105.2 meq/L
  DBIL: 0.018 mg/dL
  GLC: 189.8 mg/dL
  IP: 6.6 mg/dL
  K: 4 meq/L
  LDH: 71.6 IU/L
  Na: 142.2 meq/L
  PL: 159 mg/dL
  RALB: 2.8 g/dL
  TBIL: 0.028 mg/dL
  TC: 74.4 mg/dL
  TG: 131.2 mg/dL
  TP: 5.8 g/dL
  gamma-GTP: 0.8 IU/L
[3]
  TERMINAL_BW: 335.9 g
  APTT: 19.2 s
  Bas: 0%
  Eos: 1.2%
  Fbg: 292.4 mg/dL
  Hb: 14.8 g/dL
  Ht: 43.7%
  Lym: 80.4%
  MCH: 20.4 pg
  MCHC: 33.9%
  MCV: 60.2 fL
  Mono: 2%
  Neu: 15.8%
  PT: 14.2 s
  Plat: 122.3 x10_4/uL
  RBC: 724.8 x10_4/ul
  Ret: 4.5%
  WBC: 90.4 x10_2/uL
  KIDNEY_L: 1.3 g
  KIDNEY_R: 1.3 g
  KIDNEY_TOTAL: 2.6 g
  LIVER: 15.3 g
  A/G: 0.9
  ALP: 1246.2 IU/L
  ALT: 41.4 IU/L
  AST: 68.2 IU/L
  BUN: 16.2 mg/dL
  CRE: 0.2 mg/dL
  Ca: 10.9 mg/dL
  Cl: 105.2 meq/L
  DBIL: 0.01 mg/dL
  GLC: 189 mg/dL
  IP: 6.2 mg/dL
  K: 4.2 meq/L
  LDH: 107.4 IU/L
  Na: 143 meq/L
  PL: 155.6 mg/dL
  RALB: 2.8 g/dL
  TBIL: 0.024 mg/dL
  TC: 71.4 mg/dL
  TG: 150.4 mg/dL
  TP: 6.1 g/dL
  gamma-GTP: 0.8 IU/L
[4]
  TERMINAL_BW: 405.5 g
  APTT: 18.4 s
  Bas: 0%
  Eos: 1.4%
  Fbg: 300.8 mg/dL
  Hb: 15.6 g/dL
  Ht: 45.4%
  Lym: 79.2%
  MCH: 19.8 pg
  MCHC: 34.2%
  MCV: 58 fL
  Mono: 2.2%
  Neu: 16.2%
  PT: 14.1 s
  Plat: 103.8 x10_4/uL
  RBC: 783.8 x10_4/ul
  Ret: 2.6%
  WBC: 93.7 x10_2/uL
  KIDNEY_L: 1.4 g
  KIDNEY_R: 1.4 g
  KIDNEY_TOTAL: 2.8 g
  LIVER: 16.3 g
  A/G: 0.9
  ALP: 945.4 IU/L
  ALT: 29.6 IU/L
  AST: 58.4 IU/L
  BUN: 15.4 mg/dL
  CRE: 0.3 mg/dL
  Ca: 10.9 mg/dL
  Cl: 105.8 meq/L
  DBIL: 0.008 mg/dL
  GLC: 185 mg/dL
  IP: 6 mg/dL
  K: 3.6 meq/L
  LDH: 51.6 IU/L
  Na: 144 meq/L
  PL: 147.4 mg/dL
  RALB: 2.9 g/dL
  TBIL: 0.052 mg/dL
  TC: 67.6 mg/dL
  TG: 140.8 mg/dL
  TP: 6.3 g/dL
  gamma-GTP: 1.2 IU/L
[5]
  TERMINAL_BW: 236.4 g
  APTT: 16.9 s
  Bas: 0%
  Eos: 1%
  Fbg: 294.8 mg/dL
  Hb: 13.7 g/dL
  Ht: 41.6%
  Lym: 78.8%
  MCH: 20.9 pg
  MCHC: 33%
  MCV: 63.3 fL
  Mono: 2.8%
  Neu: 16.6%
  PT: 14.1 s
  Plat: 122 x10_4/uL
  RBC: 658.2 x10_4/ul
  Ret: 7.4%
  WBC: 84.7 x10_2/uL
  KIDNEY_L: 1 g
  KIDNEY_R: 1 g
  KIDNEY_TOTAL: 1.9 g
  LIVER: 10.8 g
  A/G: 0.9
  ALP: 1491 IU/L
  ALT: 40.2 IU/L
  AST: 69.8 IU/L
  BUN: 13 mg/dL
  CRE: 0.2 mg/dL
  Ca: 10.8 mg/dL
  Cl: 106.6 meq/L
  DBIL: 0.014 mg/dL
  GLC: 183.8 mg/dL
  IP: 7 mg/dL
  K: 4.1 meq/L
  LDH: 85 IU/L
  Na: 143.8 meq/L
  PL: 156 mg/dL
  RALB: 2.7 g/dL
  TBIL: 0.028 mg/dL
  TC: 80.8 mg/dL
  TG: 114.8 mg/dL
  TP: 5.7 g/dL
  gamma-GTP: 1.2 IU/L
[6]
  TERMINAL_BW: 276.9 g
  APTT: 17.9 s
  Bas: 0.2%
  Eos: 1%
  Fbg: 305.6 mg/dL
  Hb: 13.9 g/dL
  Ht: 42.4%
  Lym: 80.6%
  MCH: 20.7 pg
  MCHC: 32.9%
  MCV: 63 fL
  Mono: 2.4%
  Neu: 14.6%
  PT: 14.2 s
  Plat: 127.2 x10_4/uL
  RBC: 674.2 x10_4/ul
  Ret: 5.7%
  WBC: 102.7 x10_2/uL
  KIDNEY_L: 1.1 g
  KIDNEY_R: 1.1 g
  KIDNEY_TOTAL: 2.3 g
  LIVER: 12.9 g
  A/G: 0.9
  ALP: 1699 IU/L
  ALT: 43.4 IU/L
  AST: 66.2 IU/L
  BUN: 17 mg/dL
  CRE: 0.2 mg/dL
  Ca: 10.9 mg/dL
  Cl: 104.2 meq/L
  DBIL: 0.01 mg/dL
  GLC: 184 mg/dL
  IP: 7.5 mg/dL
  K: 3.9 meq/L
  LDH: 80.6 IU/L
  Na: 142.2 meq/L
  PL: 167.8 mg/dL
  RALB: 2.7 g/dL
  TBIL: 0.028 mg/dL
  TC: 85.2 mg/dL
  TG: 116.8 mg/dL
  TP: 5.8 g/dL
  gamma-GTP: 1.2 IU/L
[7]
  TERMINAL_BW: 325.3 g
  APTT: 17.2 s
  Bas: 0%
  Eos: 1%
  Fbg: 300.8 mg/dL
  Hb: 14.8 g/dL
  Ht: 43.6%
  Lym: 82.4%
  MCH: 20.7 pg
  MCHC: 34%
  MCV: 60.9 fL
  Mono: 1.8%
  Neu: 14%
  PT: 13.8 s
  Plat: 111.4 x10_4/uL
  RBC: 716 x10_4/ul
  Ret: 3.9%
  WBC: 83.6 x10_2/uL
  KIDNEY_L: 1.3 g
  KIDNEY_R: 1.3 g
  KIDNEY_TOTAL: 2.6 g
  LIVER: 14.2 g
  A/G: 0.9
  ALP: 1443.4 IU/L
  ALT: 42.8 IU/L
  AST: 61.6 IU/L
  BUN: 15 mg/dL
  CRE: 0.2 mg/dL
  Ca: 10.9 mg/dL
  Cl: 104.2 meq/L
  DBIL: 0.012 mg/dL
  GLC: 194.4 mg/dL
  IP: 6.7 mg/dL
  K: 3.9 meq/L
  LDH: 89 IU/L
  Na: 142.4 meq/L
  PL: 178.2 mg/dL
  RALB: 2.8 g/dL
  TBIL: 0.028 mg/dL
  TC: 85 mg/dL
  TG: 171.6 mg/dL
  TP: 6 g/dL
  gamma-GTP: 1 IU/L
[8]
  TERMINAL_BW: 410.3 g
  APTT: 18.8 s
  Bas: 0%
  Eos: 1.6%
  Fbg: 313 mg/dL
  Hb: 16.2 g/dL
  Ht: 46.8%
  Lym: 82.8%
  MCH: 20 pg
  MCHC: 34.6%
  MCV: 57.7 fL
  Mono: 1.8%
  Neu: 13%
  PT: 14.1 s
  Plat: 101.2 x10_4/uL
  RBC: 812.4 x10_4/ul
  Ret: 2.2%
  WBC: 93.4 x10_2/uL
  KIDNEY_L: 1.4 g
  KIDNEY_R: 1.4 g
  KIDNEY_TOTAL: 2.8 g
  LIVER: 15.7 g
  A/G: 0.9
  ALP: 1085 IU/L
  ALT: 35 IU/L
  AST: 57.2 IU/L
  BUN: 16.6 mg/dL
  CRE: 0.3 mg/dL
  Ca: 10.9 mg/dL
  Cl: 105.8 meq/L
  DBIL: 0.01 mg/dL
  GLC: 179.4 mg/dL
  IP: 6.2 mg/dL
  K: 3.9 meq/L
  LDH: 58 IU/L
  Na: 144 meq/L
  PL: 159.8 mg/dL
  RALB: 2.9 g/dL
  TBIL: 0.066 mg/dL
  TC: 77.2 mg/dL
  TG: 139.2 mg/dL
  TP: 6.3 g/dL
  gamma-GTP: 1.2 IU/L
